Where a name gives a salt, the structure may show the parent alone.
What was measured:
[1] = tested on: RS4;11 leukaemia tumour line; experiment: In vitro cytotoxicity (MTT) on RS4;11; type: cell-based; conditions: RS4;11 cells, 48 hours exposure
Procedure: The cytotoxicity studies were carried out on the RS4;11 leukaemia tumour line.
The cells are distributed onto microplates and exposed to the test compounds for 48 hours.
The cell viability is then quantified by a colorimetric assay, the Microculture Tetrazolium Assay (Cancer Res., 1987, 47, 939-942).

Bcl-2 protein = target: T1, Bcl-2 protein (histag-Bcl-2, UniProtKB P10415) (Homo sapiens, UniProt P10415); experiment: Inhibition of Bcl-2 by the fluorescence polarisation technique; type: binding; conditions: for IC50: fluorescence polarisation, 2 hours incubation, read-out: IC50 (nM) Bcl-2 FP
T1 construct: His tag
Procedure: The fluorescence polarisation tests were carried out on microplates (384 wells). The Bcl-2 protein, labelled (histag-Bcl-2 such that Bcl-2 corresponds to the UniProtKB® primary accession number: P10415), at a final concentration of 2.50×10^−8 M, is mixed with a fluorescent peptide (Fluorescein-[…]), at a final concentration of 1.00×10^−8M in a buffer solution (Hepes 10 mM, NaCl 150 mM, Tween20 0.05%, pH 7.4), in the presence or absence of increasing concentrations of test compounds. After incubation for 2 hours, the fluorescence polarisation is measured.

T1 sequence (P10415 whole entry): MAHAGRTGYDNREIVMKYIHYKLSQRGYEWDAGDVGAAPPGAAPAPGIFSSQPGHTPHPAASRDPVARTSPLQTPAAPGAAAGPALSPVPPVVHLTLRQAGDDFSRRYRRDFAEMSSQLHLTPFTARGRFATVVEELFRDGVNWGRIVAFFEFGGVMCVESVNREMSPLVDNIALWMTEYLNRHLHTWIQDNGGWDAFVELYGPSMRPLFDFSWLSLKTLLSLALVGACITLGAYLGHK

| IC50 (Bcl-2 protein) | percentage fluorescence polarisation inhibition (partial inhibitors), Bcl-2 FP (Bcl-2 protein; @ 10 μM test compound) | SMILES | IC50 ([1]; Homo sapiens) | IC50 [1] |
| --- | --- | --- | --- | --- |
| 6.4 nM | – | CC(C)c1cc(N(C(=O)c2cc(-c3cc4c(cc3C(=O)N3Cc5ccccc5C[C@H]3C)OCO4)n3ccccc23)c2ccc(O)cc2)ccn1 [Example 58, N-(4-Hydroxyphenyl)-3-(6-{[(3R)-3-methyl-3,4-dihydroisoquinolin-2(1H)-yl]carbonyl}-1,3-benzodioxol-5-yl)-N-[2-(propan-2-yl)pyridin-4-yl)indolizine-1-carboxamide hydrochloride] | 68.5 nM | – |
| 4.8 nM | – | O=C(c1cc(-c2cc3c(cc2C(=O)N2Cc4ccccc4C[C@H]2CCNCC(F)F)OCO3)n2c1CCCC2)N(c1ccccc1)c1ccc(O)cc1 [Example 43, 3-(6-{[(3S)-3-{2-[(2,2-Difluoroethyl)amino]ethyl}-3,4-dihydroisoquinolin-2(1H)-yl]carbonyl}-1,3-benzodioxol-5-yl)-N-(4-hydroxyphenyl)-N-phenyl-5,6,7,8-tetrahydroindolizine-1-carboxamide] | 26 nM | – |
| 5 nM | – | Cc1cnn2cc(N(C(=O)c3cc(-c4cc5c(cc4C(=O)N4Cc6ccccc6C[C@H]4C)OCO5)n4ccccc34)c3ccc(O)cc3)cnc12 [Example 86, N-(4-Hydroxyphenyl)-3-[6-[(3R)-3-methyl-3,4-dihydro-1H-isoquinoline-2-carbonyl]-1,3-benzodioxol-5-yl]-N-(3-methylpyrazolo[1,5-a]pyrimidin-6-yl)-indolizine-1-carboxamide hydrochloride] | 20.1 nM | – |
| 5.6 nM | – | C[C@@H]1Cc2ccccc2CN1C(=O)c1ccc(F)cc1-c1cc(C(=O)N(c2ccncc2)c2ccc(O)cc2)c2ccccn12 [Example 62, 3-(5-Fluoro-2-{[(3R)-3-methyl-3,4-dihydroisoquinolin-2(1H)-yl]-carbonyl}phenyl)-N-(4-hydroxyphenyl)-N-(pyridin-4-yl)indolizine-1-carboxamide] | 96.6 nM | – |
| 19 nM | – | COc1ccc(-c2cc(C(=O)N(c3ccccc3)c3ccc(O)cc3)c3n2CCCC3)c(C(=O)N2Cc3ccccc3C[C@H]2CCN2CCOCC2)c1 [Example 29, N-(4-Hydroxyphenyl)-3-(4-methoxy-2-{[(3S)-3-[2-(morpholin-4-yl)ethyl]-3,4-dihydroisoquinolin-2(1H)-yl]carbonyl}phenyl)-N-phenyl-5,6,7,8-tetrahydro-indolizine-1-carboxamide hydrochloride] | 163 nM | – |
| 90.2 nM | – | C[C@@H]1Cc2ccccc2CN1C(=O)c1cc2c(cc1-c1cc(C(=O)N(C)c3ccc(O)cc3)c3n1CCNC3)OCO2 [Example 72, N-(4-Hydroxyphenyl)-N-methyl-6-(6-{[(3R)-3-methyl-3,4-dihydroiso-quinolin-2(1H)-yl]carbonyl}-1,3-benzodioxol-5-yl)-1,2,3,4-tetrahydropyrrolo[1,2-a]-pyrazine-8-carboxamide] | 1520 nM | – |
| – | 25.1% @ 10 μM | CCN(C(=O)c1cc(-c2cc3c(cc2C(=O)N2Cc4ccccc4C[C@@H]2C)OCO3)n2c1CNCC2)c1ccc(O)cc1 [Example 77, N-Ethyl-N-(4-hydroxyphenyl)-6-(6-{[(3S)-3-methyl-3,4-dihydroiso-quinolin-2(1H)-yl]carbonyl}-1,3-benzodioxol-5-yl)-1,2,3,4-tetrahydropyrrolo[1,2-a]-pyrazine-8-carboxamide] | – | 1880 nM |
| 16.6 nM | – | O=C(c1cc(-c2cc3c(cc2C(=O)N2Cc4ccccc4C[C@H]2CCN2CCOCC2)OCO3)n2c1CCCC2)N(c1ccccc1)c1cccc(F)c1 [Example 26, N-(3-Fluorophenyl)-3-(6-{[(3S)-3-[2-(morpholin-4-yl)ethyl]-3,4-dihydro-isoquinolin-2(1H)-yl]carbonyl}-1,3-benzodioxol-5-yl)-N-phenyl-5,6,7,8-tetrahydro-indolizine-1-carboxamide hydrochloride] | 300 nM | – |
| 7.9 nM | – | O=C(c1cc(-c2cc3c(cc2C(=O)N2Cc4ccccc4C[C@H]2CCN2CCOCC2)OCO3)n2c1CCCC2)N(c1ccc(O)cc1)c1ccc(F)c(F)c1 [Example 25, N-(3,4-Difluorophenyl)-N-(4-hydroxyphenyl)-3-(6-{[(3S)-3-[2-(morpholin-4-yl)ethyl]-3,4-dihydroisoquinolin-2(1H)-yl]carbonyl}-1,3-benzodioxol-5-yl)-5,6,7,8-tetrahydroindolizine-1-carboxamide hydrochloride] | 30 nM | – |
| 5 nM | – | Cc1cc(N(C(=O)c2cc(-c3cc4c(cc3C(=O)N3Cc5ccccc5C[C@H]3C)OCO4)n3ccccc23)c2ccc(O)cc2)ccn1 [Example 32, N-(4-Hydroxyphenyl)-3-(6-{[(3R)-3-methyl-3,4-dihydroisoquinolin-2(1H)-yl]carbonyl}-1,3-benzodioxol-5-yl)-N-(2-methylpyridin-4-yl)indolizine-1-carboxamide hydrochloride] | 32.7 nM | – |
| 3.7 nM | – | C[C@@H]1Cc2ccccc2CN1C(=O)c1ccc(Cl)cc1-c1cc(C(=O)N(c2ccncc2)c2ccc(O)cc2)c2ccccn12 [Example 49, 3-(5-Chloro-2-{[(3R)-3-methyl-3,4-dihydroisoquinolin-2(1H)-yl]-carbonyl}phenyl)-N-(4-hydroxyphenyl)-N-(pyridin-4-yl)indolizine-1-carboxamide hydrochloride] | 84.7 nM | – |
| 5.4 nM | – | Cc1cn2ccc(N(C(=O)c3cc(-c4cc5c(cc4C(=O)N4Cc6ccccc6C[C@H]4C)OCO5)n4ccccc34)c3ccc(O)cc3)cc2n1 [Example 53, N-(4-Hydroxyphenyl)-3-(6-{[(3R)-3-methyl-3,4-dihydroisoquinolin-2(1H)-yl]carbonyl}-1,3-benzodioxol-5-yl)-N-(2-methylimidazo[1,2-a]pyridin-7-yl)indolizine-1-carboxamide hydrochloride] | 70.9 nM | – |
| 33.6 nM | – | C[C@@H]1Cc2ccccc2CN1C(=O)c1ccc(Cl)cc1-c1cc(C(=O)N(c2ccc(O)cc2)c2ccc3c(ccn3C)c2)c2n1CCNC2 [Example 3, 6-(5-Chloro-2-{[(3R)-3-methyl-3,4-dihydroisoquinolin-2(1H)-yl]-carbonyl}phenyl)-N-(4-hydroxyphenyl)-N-(1-methyl-1H-indol-5-yl)-1,2,34-tetrahydropyrrolo[1,2-a]pyrazine-8-carboxamide hydrochloride] | 66.5 nM | – |
| 4.3 nM | – | C[C@@H]1Cc2ccccc2CN1C(=O)c1ccc(Cl)cc1-c1cc(C(=O)N(c2ccc(O)cc2)c2cnn(C)c2)c2n1CCCC2 [Example 47, 3-(5-Chloro-2-{[(3R)-3-methyl-3,4-dihydroisoquinolin-2(1H)-yl]-carbonyl}phenyl)-N-(4-hydroxyphenyl)-N-(1-methyl-1H-pyrazol-4-yl)-5,6,7,8-tetrahydroindolizine-1-carboxamide] | 90.1 nM | – |
| 5.2 nM | – | C[C@@H]1Cc2ccccc2CN1C(=O)c1cc2c(cc1-c1cc(C(=O)N(c3ccc(O)cc3)c3cnc4c(cnn4C)c3)c3ccccn13)OCO2 [Example 70, N-(4-Hydroxyphenyl)-3-(6-{[(3R)-3-methyl-3,4-dihydroisoquinolin-2(1,H)-yl]carbonyl]-1,3-benzodioxol-5-yl)-N-(1-methyl-1H-pyrazolo[3,4-b]pyridin-5-yl)indolizine-1-carboxamide] | 6.17 nM | – |
| 6.2 nM | – | C[C@@H]1Cc2ccccc2CN1C(=O)c1ccc(F)cc1-c1cc(C(=O)N(c2ccc(O)cc2)c2cnc3c(ccn3C)c2)c2ccccn12 [Example 63, 3-(5-Fluoro-2-{[(3R)-3-methyl-3,4-dihydroisoquinolin-2(1H)-yl]-carbonyl}phenyl)-N-(4-hydroxyphenyl)-N-(1-methyl-1H-pyrrolo[2,3-b]pyridin-5-yl)indolizine-1-carboxamide] | 25.4 nM | – |
| 5.3 nM | – | C[C@@H]1Cc2ccccc2CN1C(=O)c1ccc(F)cc1-c1cc(C(=O)N(c2ccc(O)cc2)c2cnc3c(ccn3C)c2)c2n1CCCC2 [Example 65, 3-(5-Fluoro-2-{[(3R)-3-methyl-3,4-dihydroisoquinolin-2(1H)-yl]-carbonyl}phenyl)-N-(4-hydroxyphenyl)-N-(1-methyl-1H-pyrrolo[2,3-b]pyridin-5-yl)-5,6,7,8-tetrahydroindolizine-1-carboxamide] | 62.8 nM | – |
| 5.4 nM | – | C[C@@H]1Cc2ccccc2CN1C(=O)c1ccc(F)cc1-c1cc(C(=O)N(c2ccc(O)cc2)c2cnn(C)c2)c2ccccn12 [Example 60, 3-(5-Fluoro-2-{[(3R)-3-methyl-3,4-dihydroisoquinolin-2(1H)-yl]-carbonyl}phenyl)-N-(4-hydroxyphenyl)-N-(1-methyl-1H-pyrazol-4-yl)indolizine-1-carboxamide] | 60.3 nM | – |
| 4.6 nM | – | C[C@@H]1Cc2ccccc2CN1C(=O)c1cc2c(cc1-c1cc(C(=O)N(c3ccc(O)cc3)c3cnc4c(ccn4C)c3)c3ccccn13)OCO2 [Example 33, N-(4-Hydroxyphenyl)-3-(6-{[(3R)-3-methyl-3,4-dihydroisoquinolin-2(1H)-yl]carbonyl}-1,3-benzodioxol-5-yl)-N-(1-methyl-1H-pyrrolo[2,3-b]pyridin-5-yl)indolizine-1-carboxamide hydrochloride] | 6.33 nM | – |
| 55.9 nM | – | O=C(c1ccc(Cl)cc1-c1cc(C(=O)N(c2ccc(O)cc2)c2ccc3c(c2)CCN3CCN2CCOCC2)c2n1CCCC2)N1CCc2ccccc2C1 [Example 5, 3-[5-Chloro-2-(3,4-dihydroisoquinolin-2(1H)-ylcarbonyl)phenyl]-N-(4-hydroxyphenyl)-N-{1-[2-(morpholin-4-yl)ethyl]-2,3-dihydro-1H-indol-5-yl}-5,6,7,8-tetrahydroindolizine-1-carboxamide] | 416 nM | – |
